From PubChem BioAssay (NCI)
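Where inhibition never reached the appropriate level, the endpoint shown equals the highest concentration tested. Otherwise, values were interpolated linearly from a five-concentration, 48-hour dose response in 96-well plates. GI50 = concentration required for 50% inhibition of growth. The concentration for full growth arrest is given as TGI.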

What was measured:
Experiment in all cases: NCI anticancer screen, dose series, 48 h
HS 578T breast = test system: HS 578T breast
SK-OV-3 ovarian = test system: SK-OV-3 ovarian
SW-620 colon = test system: SW-620 colon
HCT-15 colon = test system: HCT-15 colon
COLO 205 colon = test system: COLO 205 colon
A549 NSCLC = test system: A549 NSCLC
T-47D breast = test system: T-47D breast
HT29 colon = test system: HT29 colon
NCI-H460 lung = test system: NCI-H460 lung
HOP-62 NSCLC = test system: HOP-62 NSCLC
TK-10 renal = test system: TK-10 renal
OVCAR-3 ovarian = test system: OVCAR-3 ovarian
MDA-MB-231 breast = test system: MDA-MB-231 breast
HOP-92 NSCLC = test system: HOP-92 NSCLC
HL-60(TB) leukemia = test system: HL-60(TB) leukemia
A498 renal = test system: A498 renal
MOLT-4 leukemia = test system: MOLT-4 leukemia
SF-539 CNS = test system: SF-539 CNS
M14 melanoma = test system: M14 melanoma
SN12C renal = test system: SN12C renal
OVCAR-5 ovarian = test system: OVCAR-5 ovarian
MCF7 breast = test system: MCF7 breast
RPMI-8226 leukemia = test system: RPMI-8226 leukemia
UACC-62 melanoma = test system: UACC-62 melanoma
K-562 leukemia = test system: K-562 leukemia
NCI-H226 lung = test system: NCI-H226 lung
NCI-H23 lung = test system: NCI-H23 lung
SNB-75 CNS = test system: SNB-75 CNS
HCT-116 colon = test system: HCT-116 colon
CAKI-1 renal = test system: CAKI-1 renal
PC-3 prostate = test system: PC-3 prostate
CCRF-CEM leukemia = test system: CCRF-CEM leukemia
KM12 colon = test system: KM12 colon
ACHN renal = test system: ACHN renal
786-0 renal = test system: 786-0 renal
U251 CNS = test system: U251 CNS
SF-295 CNS = test system: SF-295 CNS
SNB-19 CNS = test system: SNB-19 CNS
SF-268 CNS = test system: SF-268 CNS
IGROV1 ovarian = test system: IGROV1 ovarian
OVCAR-4 ovarian = test system: OVCAR-4 ovarian
SK-MEL-28 melanoma = test system: SK-MEL-28 melanoma
SK-MEL-5 melanoma = test system: SK-MEL-5 melanoma
BT-549 breast = test system: BT-549 breast
HCC-2998 colon = test system: HCC-2998 colon
LOX IMVI melanoma = test system: LOX IMVI melanoma
MALME-3M melanoma = test system: MALME-3M melanoma
UO-31 renal = test system: UO-31 renal
EKVX NSCLC = test system: EKVX NSCLC
NCI/ADR-RES ovarian = test system: NCI/ADR-RES ovarian
DU-145 prostate = test system: DU-145 prostate
MDA-MB-435 = test system: MDA-MB-435

Work on `CCCCCCCCCCCCn1c(C)nc2ccccc21` yielded a GI50 (HS 578T breast) of 27.7 µM, a TGI (HS 578T breast) of 48.3 µM and a GI50 (SK-OV-3 ovarian) of 13.6 µM. The TGI (SK-OV-3 ovarian) was 26.5 µM, the GI50 (SW-620 colon) was 15.4 µM and the TGI (SW-620 colon) was 30.7 µM. It also gave a GI50 (HCT-15 colon) of 12.3 µM, a TGI (HCT-15 colon) of 27.4 µM and a GI50 (COLO 205 colon) of 13.2 µM. For the same compound, the TGI (COLO 205 colon) was 27.4 µM, the GI50 (A549 NSCLC) was 0.4 µM and the TGI (A549 NSCLC) was 20.7 µM. It also gave a GI50 (T-47D breast) of 0.325 µM, a TGI (T-47D breast) of 19.1 µM and a GI50 (HT29 colon) of 11.6 µM. It also gave a TGI (HT29 colon) of 23.7 µM, a GI50 (NCI-H460 lung) of 10.5 µM and a TGI (NCI-H460 lung) of 24.3 µM. It also gave a GI50 (HOP-62 NSCLC) of 12.4 µM, a TGI (HOP-62 NSCLC) of 25.5 µM and a GI50 (TK-10 renal) of 11.2 µM. The TGI (TK-10 renal) was 25.5 µM, the GI50 (OVCAR-3 ovarian) was 14.7 µM and the TGI (OVCAR-3 ovarian) was 30.2 µM. It also gave a GI50 (MDA-MB-231 breast) of 15.3 µM, a TGI (MDA-MB-231 breast) of 34.8 µM and a GI50 (HOP-92 NSCLC) of 11 µM. It also gave a TGI (HOP-92 NSCLC) of 23.9 µM, a GI50 (HL-60(TB) leukemia) of 2.54 µM and a TGI (HL-60(TB) leukemia) of 18.5 µM. It also gave a GI50 (A498 renal) of 12.4 µM, a TGI (A498 renal) of 25.5 µM and a GI50 (MOLT-4 leukemia) of 10.2 µM. It also gave a TGI (MOLT-4 leukemia) of 23.5 µM, a GI50 (SF-539 CNS) of 13.7 µM and a TGI (SF-539 CNS) of 27 µM. The GI50 (M14 melanoma) was 13.7 µM, the TGI (M14 melanoma) was 26.6 µM and the GI50 (SN12C renal) was 14.4 µM. It also gave a TGI (SN12C renal) of 31.1 µM, a GI50 (OVCAR-5 ovarian) of 4.78 µM and a TGI (OVCAR-5 ovarian) of 17.6 µM. The GI50 (MCF7 breast) was 5.15 µM, the TGI (MCF7 breast) was 23.3 µM and the GI50 (RPMI-8226 leukemia) was 0.614 µM. It also gave a TGI (RPMI-8226 leukemia) of 10.3 µM, a GI50 (UACC-62 melanoma) of 13.1 µM and a TGI (UACC-62 melanoma) of 26.9 µM. For the same compound, the GI50 (K-562 leukemia) was 1.11 µM, the TGI (K-562 leukemia) was 16.4 µM and the GI50 (NCI-H226 lung) was 12.7 µM. The TGI (NCI-H226 lung) was 31.7 µM, the GI50 (NCI-H23 lung) was 0.49 µM and the TGI (NCI-H23 lung) was 11.5 µM. The GI50 (SNB-75 CNS) was 16.2 µM, the TGI (SNB-75 CNS) was 30.3 µM and the GI50 (HCT-116 colon) was 0.712 µM. It also gave a TGI (HCT-116 colon) of 13 µM, a GI50 (CAKI-1 renal) of 14 µM and a TGI (CAKI-1 renal) of 31.2 µM. For the same compound, the GI50 (PC-3 prostate) was 2.47 µM, the TGI (PC-3 prostate) was 15.8 µM and the GI50 (CCRF-CEM leukemia) was 2.79 µM. The TGI (CCRF-CEM leukemia) was 21.2 µM, the GI50 (KM12 colon) was 14.3 µM and the TGI (KM12 colon) was 29 µM. The GI50 (ACHN renal) was 13.2 µM, the TGI (ACHN renal) was 26.5 µM and the GI50 (786-0 renal) was 11.5 µM. The TGI (786-0 renal) was 24 µM, the GI50 (U251 CNS) was 11 µM and the TGI (U251 CNS) was 24.9 µM. For the same compound, the GI50 (SF-295 CNS) was 8.87 µM, the TGI (SF-295 CNS) was 26.6 µM and the GI50 (SNB-19 CNS) was 13.5 µM. For the same compound, the TGI (SNB-19 CNS) was 26.3 µM, the GI50 (SF-268 CNS) was 19.6 µM and the TGI (SF-268 CNS) was 41.1 µM. For the same compound, the GI50 (IGROV1 ovarian) was 14.7 µM, the TGI (IGROV1 ovarian) was 28.3 µM and the GI50 (OVCAR-4 ovarian) was 12.7 µM. For the same compound, the TGI (OVCAR-4 ovarian) was 25.6 µM, the GI50 (SK-MEL-28 melanoma) was 19.4 µM and the TGI (SK-MEL-28 melanoma) was 34.5 µM. For the same compound, the GI50 (SK-MEL-5 melanoma) was 0.984 µM, the TGI (SK-MEL-5 melanoma) was 18.2 µM and the GI50 (BT-549 breast) was 12 µM. For the same compound, the TGI (BT-549 breast) was 28.7 µM, the GI50 (HCC-2998 colon) was 2.6 µM and the TGI (HCC-2998 colon) was 18 µM. It also gave a GI50 (LOX IMVI melanoma) of 3.72 µM, a TGI (LOX IMVI melanoma) of 20.5 µM and a GI50 (MALME-3M melanoma) of 16.2 µM. The TGI (MALME-3M melanoma) was 33.6 µM, the GI50 (UO-31 renal) was 7.58 µM and the TGI (UO-31 renal) was 20.6 µM. It also gave a GI50 (EKVX NSCLC) of 1.72 µM, a TGI (EKVX NSCLC) of 19.3 µM and a GI50 (NCI/ADR-RES ovarian) of 2.55 µM. It also gave a TGI (NCI/ADR-RES ovarian) of 12.9 µM, a GI50 (DU-145 prostate) of 17.2 µM and a TGI (DU-145 prostate) of 35.4 µM. For the same compound, the GI50 (MDA-MB-435) was 12.8 µM and the TGI (MDA-MB-435) was 28.8 µM.
